The assay has as its system TNF-α-induced IL-6 production in normal human skin fibroblast-derived CCD-1059Sk cells. Nature of the assay: Test for measurement of inhibitory activity against TNF-α-induced IL-6 production. Format: cell-based. The settings on record: test compound at 10 μM, TNF-α stimulation 16 hours, inhibition ratio of 100% or more is indicated as 100%; for inhibition at 10 µM: Homo sapiens, CCD-1059Sk, 16 h. As to the method: 1. Test for Measurement of Inhibitory Activity Against IL-6 Production
An inhibitory effect on TNF-α-induced IL-6 production in normal human skin fibroblast-derived CCD-1059Sk cells (ATCC No. CRL-2072) was evaluated. The amount of IL-6 was determined by the homogeneous time-resolved fluorescence method using HTRF™ Human IL-6 kit (Cat. No. 62IL6PEB, manufactured by CIS-Bio international, Inc.). Specific test methods will be described below.
(Preparation of Test Compound Solution)
After a test compound was dissolved in dimethyl sulfoxide, the resulting solution was diluted with D-MEM medium containing 0.1% heat-inactivated fetal bovine serum, 0.1 mM MEM non-essential amino acid solution, 100 U/mL penicillin and 100 μg/mL streptomycin (hereinafter referred to as “medium”), whereby a 40 μM test compound solution was prepared.
(Test Method and Measurement Method)
1) CCD-1059Sk cells prepared at a density of 3×10^5 cells/mL were inoculated in a 384-well plate in an amount of 10 μL per well such that the cell density was 3×10^3 cells/well.
2). After the plate was incubated at 37° C. for several hours in a CO2 incubator, 5 μL of the test compound was added to each well.
3) After the plate was incubated at 37° C. for 1 hour in a CO2 incubator, 5 μL of a 40 ng/mL TNF-α solution was added to each well.
4) After the plate was incubated at 37° C. for 16 hours in a CO2 incubator, 10 μL of a cryptate-labeled anti-IL-6 antibody and an XL665-labeled anti-IL-6 antibody containing potassium fluoride was added to each well.
5) After the plate was incubated at room temperature for several hours, a fluorescence intensity ratio (665 nm/620 nm) was determined for each well using a multimode plate reader Analyse™ HT (manufactured by Molecular Device Corporation) and Criterion Host software version 2.00 (manufactured by Molecular Device Corporation), and then, the amount of IL-6 was calculated.
6) The same procedures as in the above 1) to 5) were performed except that 0.4% dimethyl sulfoxide was added in place of the test compound, and the obtained result was designated as the control.
7) The same procedures as in the above 1) to 5) were performed except that 0.4% dimethyl sulfoxide and the medium were added in place of the test compound and the TNF-α solution, respectively, and the obtained result was designated as the background.
(Calculation Formula of IL-6 Production Inhibition Ratio)
An IL-6 production inhibition ratio (%) was calculated from the following formula. IL-6 Production Inhibition Ratio (%)=100×{1−[(Amount of IL-6 for Test Compound)−(Amount of IL-6 for Background)/(Amount of IL-6 for Control)−(Amount of IL-6 for Background)]} (Evaluation Results)

Results on 37 molecules are retold here after patent US7977371B2, “Pyrrole derivative having ureido group and aminocarbonyl group as substituents” (Santen Pharmaceutical Co., Ltd., priority 2007, dated 2011).

Structures are written as SMILES. Structures can show the parent of a compound that is named as a salt.

Turning to `CCOC(=O)c1ccc(-c2cc(C(N)=O)c(NC(N)=O)[nH]2)cc1` [Compound 1-30, 2-Aminocarbonylamino-5-(4-ethoxycarbonylphenyl) pyrrole-3-carboxamide], the inhibition at 10 µM was found to be 90%.

`N#Cc1ccc(-c2cc(C(N)=O)c(NC(N)=O)[nH]2)cc1` [Compound 1-15, 2-Aminocarbonylamino-5-(4-cyanophenyl) pyrrole-3-carboxamide]: the inhibition at 10 µM stood at 80%.

With `CN1CCN(CCOc2ccccc2-c2cc(C(N)=O)c(NC(N)=O)[nH]2)CC1` [Compound 8-2], the inhibition at 10 µM was 77%.

As to `CC1CCN(CCOc2ccccc2-c2cc(C(N)=O)c(NC(N)=O)[nH]2)CC1` [Compound 8-10], the inhibition at 10 µM was determined as 98%.

Consider `COc1ccc(OC)c(-c2cc(C(N)=O)c(NC(N)=O)[nH]2)c1` [Compound 1-17, 2-Aminocarbonylamino-5-(2,5-dimethoxyphenyl) pyrrole-3-carboxamide], for which the inhibition at 10 µM is 96%.

`C#Cc1cccc(-c2cc(C(N)=O)c(NC(N)=O)[nH]2)c1` [Compound 11-1, 2-Aminocarbonylamino-5-(3-ethynylphenyl)pyrrole-3-carboxamide]: the inhibition at 10 µM came to 100%.

On to `CN(C)CCOc1ccccc1-c1cc(C(N)=O)c(NC(N)=O)[nH]1` [Compound 4-31, 2-Aminocarbonylamino-5-[2-(2-dimethylaminoethyloxy)phenyl]pyrrole-3-carboxamide], for which the inhibition at 10 µM came out at 98%.

Take `COc1ccc(-c2cc(C(N)=O)c(NC(N)=O)[nH]2)cc1Cl` [Compound 1-37, 2-Aminocarbonylamino-5-(3-chloro-4-methoxyphenyl)pyrrole-3-carboxamide]: the inhibition at 10 µM amounted to 98%.

In the case of `NC(=O)Nc1[nH]c(-c2ccc(Br)cc2)cc1C(N)=O` [Compound 1-1, 2-Aminocarbonylamino-5-(4-bromophenyl)pyrrole-3-carboxamide], the inhibition at 10 µM was determined as 94%.

On to `NC(=O)Nc1[nH]c(-c2cc(F)c(F)cc2F)cc1C(N)=O` [Compound 1-52, 2-Aminocarbonylamino-5-(2,4,5-trifluorophenyl) pyrrole-3-carboxamide], for which the inhibition at 10 µM is 93%.

For `C#CCOc1ccc(Cl)cc1-c1cc(C(N)=O)c(NC(N)=O)[nH]1` [Compound 4-50, 2-Aminocarbonylamino-5-[5-chloro-2-(2-propynyloxy)phenyl]pyrrole-3-carboxamide], the inhibition at 10 µM amounted to 100%.

Take `NC(=O)Nc1[nH]c(-c2ccccc2O)cc1C(N)=O` [Compound 3-1, 2-Aminocarbonylamino-5-(2-hydroxyphenyl)pyrrole-3-carboxamide]: the inhibition at 10 µM amounted to 95%.

In the case of `CNCCOc1ccccc1-c1cc(C(N)=O)c(NC(N)=O)[nH]1` [Compound 20-1, 2-Aminocarbonylamino-5-[2-(2-methylaminoethyloxy)phenyl]pyrrole-3-carboxamide hydrochloride], the inhibition at 10 µM was 95%.

`C=Cc1ccc(-c2cc(C(N)=O)c(NC(N)=O)[nH]2)cc1` [Compound 9-1, 2-Aminocarbonylamino-5-(4-vinylphenyl)pyrrole-3-carboxamide]: the inhibition at 10 µM was found to be 100%.

For the molecule `NC(=O)Nc1[nH]c(-c2cccc(Cl)c2)c(CO)c1C(N)=O` [Compound 18-1, 2-Aminocarbonylamino-5-(3-chlorophenyl)-4-(hydroxymethyl)pyrrole-3-carboxamide], the inhibition at 10 µM is 90%.

For the molecule `CCSc1cccc(-c2cc(C(N)=O)c(NC(N)=O)[nH]2)c1` [Compound 1-44, 2-Aminocarbonylamino-5-(3-ethylthiophenyl) pyrrole-3-carboxamide], the inhibition at 10 µM came to 92%.

`CCOc1ccc(F)cc1-c1cc(C(N)=O)c(NC(N)=O)[nH]1` [Compound 4-47, 2-Aminocarbonylamino-5-(2-ethoxy-5-fluorophenyl)pyrrole-3-carboxamide]: the inhibition at 10 µM stood at 100%.

Turning to `NC(=O)Nc1[nH]c(-c2cccc(F)c2)cc1C(N)=O` [Compound 1-28, 2-Aminocarbonylamino-5-(3-fluorophenyl) pyrrole-3-carboxamide], the inhibition at 10 µM was determined as 97%.

On to `NC(=O)Nc1[nH]c(-c2cccc(C#CCO)c2)cc1C(N)=O` [Compound 10-3], for which the inhibition at 10 µM came to 100%.

`NC(=O)Nc1[nH]c(-c2ccccc2C(F)(F)F)cc1C(N)=O` [Compound 1-13, 2-Aminocarbonylamino-5-(2-trifluoromethylphenyl)pyrrole-3-carboxamide]: the inhibition at 10 µM is 93%.

Consider `NC(=O)Nc1[nH]c(-c2cc(F)ccc2OCCCO)cc1C(N)=O` [Compound 4-35, 2-Aminocarbonylamino-5-[5-fluoro-2-(3-hydroxypropyloxy)phenyl]pyrrole-3-carboxamide], for which the inhibition at 10 µM is 100%.

Regarding `NC(=O)Nc1[nH]c(-c2ccc(-c3ccccc3)cc2)cc1C(N)=O` [Compound 1-5, 2-Aminocarbonylamino-5-(4-biphenyl) pyrrole-3-carboxamide], the inhibition at 10 µM was found to be 67%.

On to `NC(=O)Nc1[nH]c(-c2ccccc2OCCN2CCOCC2)cc1C(N)=O` [Compound 8-3], for which the inhibition at 10 µM is 95%.

With `NC(=O)Nc1[nH]c(-c2ccccc2OCC2CC2)cc1C(N)=O` [Compound 4-23, 2-Aminocarbonylamino-5-(2-cyclopropylmethyloxyphenyl) pyrrole-3-carboxamide], the inhibition at 10 µM is 97%.

For `NC(=O)Nc1[nH]c(-c2ccc(F)cc2)c(Cl)c1C(N)=O` [Compound 7-3], the inhibition at 10 µM is 98%.

As for `CN(CCO)CCOc1ccccc1-c1cc(C(N)=O)c(NC(N)=O)[nH]1` [Compound 8-11], the inhibition at 10 µM came to 96%.

On to `NC(=O)Nc1[nH]c(-c2ccoc2)cc1C(N)=O` [Compound 9-2], for which the inhibition at 10 µM was found to be 87%.

With `COc1ccc(Cl)cc1-c1cc(C(N)=O)c(NC(N)=O)[nH]1` [Compound 1-22, 2-Aminocarbonylamino-5-(5-chloro-2-methoxyphenyl)pyrrole-3-carboxamide], the “IL-6 production inhibition ratio” value is given as 100%.

As to `NC(=O)Nc1[nH]c(-c2ccc(Cl)s2)cc1C(N)=O` [Compound 1-48, 2-Aminocarbonylamino-5-(5-chlorothiophen-2-yl)pyrrole-3-carboxamide], the inhibition at 10 µM is 98%.

Turning to `NC(=O)Nc1[nH]c(-c2ccc(F)c(Cl)c2)cc1C(N)=O` [Compound 1-36, 2-Aminocarbonylamino-5-(3-chloro-4-fluorophenyl)pyrrole-3-carboxamide], the inhibition at 10 µM worked out at 100%.

Consider `NC(=O)Nc1[nH]c(-c2cccc([N+](=O)[O-])c2)cc1C(N)=O` [Compound 1-6, 2-Aminocarbonylamino-5-(3-nitrophenyl) pyrrole-3-carboxamide], for which the inhibition at 10 µM was determined as 92%.

Regarding `NC(=O)Nc1[nH]c(-c2ccccc2OCCCF)cc1C(N)=O` [Compound 4-24, 2-Aminocarbonylamino-5-[2-(3-fluoropropyloxy)phenyl] pyrrole-3-carboxamide], the inhibition at 10 µM was found to be 99%.

With `NC(=O)Nc1[nH]c(-c2ccccn2)cc1C(N)=O` [Compound 1-2, 2-Aminocarbonylamino-5-(pyridin-2-yl) pyrrole-3-carboxamide], the inhibition at 10 µM was 85%.

In the case of `NC(=O)Nc1[nH]c(-c2ccccc2F)cc1C(N)=O` [Compound 1-45, 2-Aminocarbonylamino-5-(2-fluorophenyl) pyrrole-3-carboxamide], the inhibition at 10 µM was found to be 95%.

Regarding `NC(=O)Nc1[nH]c(-c2ccccc2OCCN2CCCCC2)cc1C(N)=O` [Compound 4-27, 2-Aminocarbonylamino-5-[2-[2-(piperidin-1-yl)ethyloxyl]phenyl]pyrrole-3-carboxamide], the inhibition at 10 µM amounted to 99%.

As for `CN1CCCC1CCOc1ccccc1-c1cc(C(N)=O)c(NC(N)=O)[nH]1` (stereo not shown) [Compound 4-32, 2-Aminocarbonylamino-5-[2-[2-(1-methylpyrrolidin-2-yl)ethyloxy]phenyl]pyrrole-3-carboxamide], the inhibition at 10 µM was found to be 99%.

Turning to `CSc1cccc(-c2cc(C(N)=O)c(NC(N)=O)[nH]2)c1` [Compound 1-43, 2-Aminocarbonylamino-5-(3-methylthiophenyl) pyrrole-3-carboxamide], the inhibition at 10 µM was determined as 88%.

Usually inhibition stands for how much of the control response was suppressed.
